Results as given in patent US20100048594A1, “USE OF CYTOHESIN INHIBITORS FOR CHEMICALLY INDUCING LONGEVITY” (RHEINISCHE FRIEDRICH-WILHELMS UNIVERSITAT, priority 2006, published 2010).

How the values were obtained:
[1] = system: Drosophila eukaryotic initiation factor 4E binding protein (d4EBP, Thor); test: Transcription rate of insulin target gene d4EBP in insulin-treated Drosophila S2 cells (real-time PCR); type: cell-based; details: 100 μM compound, 10 μg/ml human insulin, insulin alone less than 35%
Protocol: Drosophila Schneider 2 (S2) cells were cultivated in Schneider's Medium (PAN company) with 10% heat-inactivated fetal calf serum (FCS). 2×10^6 cells were drawn into 35 mm vessels at 25° C. to 80% confluence, washed one time in phosphate buffered saline solution (1×PBS, Gibco), and transferred for twelve hours to Schneider's Medium, without FCS. The cells were then preincubated for two hours with 0.5% DMSO containing Schneider's Medium, without FCS, with or without the compound according to formula (9) or formula (25), with the final concentrations of the compounds according to formulas (9) and (25) being 1 μM, 10 μM and 100 μM. This was followed by a four-hour stimulation with 10 μg/ml human insulin (Sigma).
After washing the cells two times with PBS, total RNA was then isolated from the cells using the NucleoSpin RNA II Kit (Macherey & Nagel), according to the manufacturer's instructions. The first strain cDNA synthesis was performed with every 500 ng RNA, using the QuantiTect Reverse Transcription Kit (Qiagen), according to the manufacturer's instructions. […]
The activity of the insulin signaling pathway was determined from the transcription rate of the insulin target gene Drosophila eukaryotic initiation factor 4E binding protein (d4EBP, Thor). […]

1nR (insulin receptor) = test: Expression of insulin-repressed gene 1nR (insulin receptor) in fed Drosophila larvae (real-time PCR); type: in vivo; details: 10 mg compound per 1 g brewer's yeast, 3 days
Protocol: Three groups of 100 Drosophila larvae received 10 mg of the compound according to formula (9) mixed with 1 g autoclaved and pulverized brewer's yeast (Brewferm), while three control groups of 100 animals each received the uncut brewer's yeast. This food was administered on water-impregnated filters (Macherey-Nagel) for 3 days at 25° C.
In each case, more than 10 animals of the group were washed thoroughly with water, placed in lysate buffer (NucleoSpin RNA II kit, Macherey & Nagel), and homogenized for 1 minute at maximum speed (Ultra-Turrax T25basic). Total RNA was isolated using the NucleoSpin RNA II Kit (Macherey & Nagel, including DNase I-treatment on the column).
cDNA was produced from each 500 ng total RNA using the QuantiTect Reverse Transcription Kit (Qiagen), according to the manufacturer's instructions, including DNase I treatment. PCR was performed in batches with a total volume of 25 μl (iQ5 Real Time PCR Detection System, BioRad). The batches contained 1 μl of the cDNA batch, in each case 200 nM and 3′- and 5′-primer (Metabion) 12.5 μl 2×iQ5 SYBR Green Supermix (BioRad).
The PCR program that was used comprised 40 cycles with the following steps: 15 seconds denaturing at 95° C., 30 seconds annealing at 59° C. and 30 seconds extension at 72° C. Evaluation was carried out using the iQ5 Optical System software (Version 1.1.1442.OCR, BioRad). […]

Akt = test: Insulin-dependent phosphorylation of Akt in HepG2 cells (immunoblot); type: cell-based, human; details: 100 nM insulin
Protocol: Human hepG2 cells (ECACC) were cultivated in EMEM medium (Cambrex) with the addition of 10% fetal calf serum. 10^5 cells were seeded in 2 ml medium in 6 well plates and were cultivated at 37° C. in a moist atmosphere with 5% CO2 for 1 to 3 days, before being used for experiments.
The expression of IGFBP1 (insulin-like growth factor binding protein) is controlled by insulin via the forkhead box transcription factors O1A (FoxO1A) and O3A (FoxO3A). Following insulin stimulation, the protein kinase B/Akt (PKB/Akt) is activated via phosphorylation, based upon the phosphoinositide-3-kinase (PI3K), reaches the nucleus where it phosphorylates the transcription factor O1A (FoxO1A), which leads to a decrease in the gene expression of IGFBP1, for example.
For human HepG2 cells (ECACC), serum was removed from the medium for 90 minutes, the cells were incubated for another 60 minutes with 5 μM, 10 μM and 15 μM of the compound according to formula (9), 200 nM Wortmannin or DMSO (dimethylsulfoxide) at a corresponding concentration, after which the cells were stimulated for 10 minutes with 100 nM insulin. The cells were then lysed in lysate buffer (20 mM Tris-Cl, pH 7.5, 150 mM NaCl, 1 mM EDTA, 1 mM EGTA, 2.5 mM sodium pyrophosphate, 1 mM β-glycerophosphate, 1 mM sodium vanadate, 1% Triton X-100) and protease inhibitor mix HP (Serva).
Standardized quantities of protein were separated out using SDS-PAGE, and were transferred to nitrocellulose membranes. For protein identification via immunoblotting, an antibody was used against the phosphorylated protein Akt, pAkt (Thr308) (cell signaling). Visualization was carried out using the Enhanced Chemiluminescence System (Millipore) using a VersaDoc 5000 CCD camera (BioRad), and the intensity of the bands was quantified using the QuantityOne software (BioRad).

COc1nc(-c2ccc3c(c2)OCO3)n(-c2ccc(NC(=O)CSc3ccccc3)cc2)n1 [Compound (9)]
transcription rate of d4EBP as % of that of the untreated control groups [1]: more than 85% | expression of insulin-repressed gene 1nR (insulin receptor) (1nR (insulin receptor)): more than double | reduction in the phosphorylation of Akt as compared with phosphorylation following insulin stimulation (Akt; HepG2 cells, 10 μM compound): 50% | phosphorylation of Akt as % of the phosphorylation following insulin stimulation (Akt; HepG2 cells, 15 μM compound): approximately 25% | insulin-dependent phosphorylation of Akt (Akt; HepG2 cells, 5, 10, 15 μM compound, based upon concentration): inhibited
